Experimental data reported in US7973218B2, “Methods and compositions for controlling weeds” (Pioneer Hi-Bred International, Inc., priority 2005, dated 2011).

Tests used:
[1] = test system: GAT-HRA transgenic cotton plants; assay: Greenhouse over-the-top herbicide spray of cotton; format: in vivo, Gossypium hirsutum; details: glyphosate 1.5 lb acid equivalent per acre; 14 days after application
Source text: (§1) Cotton (Gossypium hirsutum) Coker 312 was transformed with a GAT polynucleotide (gat 4621) together with an Hra polynucleotide (SEQ ID NO:86) both operably linked to strong, constitutive plant viral promoters. The promoter linked to gat4621 contains a duplicated portion of the Strawberry Vein Banding Virus transcript promoter (Wang et al. Virus Genes 20: 11-17, 2000; Genbank X97304). The Hra gene was driven by a duplicated portion of the Mirabilis Mosaic Caulimovirus full-length transcript promoter (U.S. Pat. No. 6,420,547; Dey and Maiti, Transgenics 3:61-70, 1999). The transformation procedure used Agrobacterium tumefaciens containing an expression cassette with the genes to be transferred and cotyledon explant derived callus with some capacity to undergo embryogenesis. The callus was exposed to Agrobacterium for 48-72 hours. The callus was then exposed to selection for transformed cells on 50-200 μg/l chlorosulfuron and/or 50-450 μM glyphosate in solid medium. Glyphosate can also be used in a concentration range of about 5 to about 450 μM. Selection was applied until somatic embryos formed, and selection was again applied at the embryo germination step, and optionally during rooting of plantlets. Over 450 GAT-HRA transformation events were produced using selection with both chlorsulfuron and glyphosate.
(§2) Transformed cotton plants were rooted and then transferred to soil for further growth. Plants were then subjected to herbicide spray treatments in a greenhouse. […] Untransformed Coker 312 control plants were dead 2 weeks after glyphosate application. […] Plants transformed with both GAT and HRA were further subjected to an “over the top” application of the sulfonylurea herbicide rimsulfuron at a rate of 16 g active ingredient/hectare. […] In further experiments 32 g ai/ha rimsulfuron were applied to the cotton.

[2] = test system: Untransformed Coker 312 cotton plants; assay: Greenhouse over-the-top herbicide spray of cotton; format: in vivo, Gossypium hirsutum
Source text: as §1, §2

[3] = test system: non-transformed GS3 embryos; assay: Glyphosate kill curve; format: cell-based, maize; details: about 40 days culture
Protocol: (§3) A glyphosate kill curve was established by testing non-transformed embryos response on media with different levels of glyphosate. GS3 embryos were isolated from an immature ear and placed onto media containing glyphosate at 0.0, 0.5, 1.0, and 2.0 mM. After about 40 days culture, the response of the embryos were observed and recorded. Similarly, infected GS3 embryos with the GAT construct were placed onto media containing glyphosate at 0.0, 0.5, 1.0, and 2.0 mM. After about 40 days culture, the response of the infected embryos were observed and recorded (FIG. 7).

[4] = test system: Hairy Fleabane (Conyza bonariensis), glyphosate sensitive biotype; assay: Control of hairy fleabane by glyphosate, metsulfuron-methyl and two additives; format: in vivo; details: glyphosate on its own
Protocol: This example included the same treatments as used in Example 11, except the treatments were carried out on a glyphosate sensitive biotype of Kleinskraalhans (Conyza bonariensis).

[5] = test system: Heterozygous GAT-HRA corn; assay: Postemergence herbicide application to potted corn (fresh weight, visual injury); format: in vivo; details: 3472 g ae/ha
[6] = test system: Glyphosate, Paraquat, and ACCase-Inhibitor Resistant Ryegrass; assay: Control of resistant ryegrass by glyphosate and representative SU's; format: in vivo; details: glyphosate (SCAT) only or plus an SU
Source text: In this example, four different SU's were applied together with glyphosate (SCAT®) on the resistant ryegrass. The results as to the best SU partner for glyphosate were inconclusive, but the average benefit of applying an SU with glyphosate on herbicide resistant ryegrass was 39% (e.g., 34% control with glyphosate (SCAT®) only and 57-83% control with glyphosate (SCAT®) plus metsulfuron-methyl (BRUSH-OFF®), chlorsulfuron (GLEAN®), or triasulfuron (LOGRAN(®)).

[7] = test system: Parent elite stiff stalk inbred corn; assay: Postemergence herbicide application to potted corn (fresh weight, visual injury); format: in vivo; details: 3472 g ae/ha
[8] = test system: infected GS3 embryos with the GAT construct; assay: Glyphosate selection of infected embryos; format: cell-based, maize; details: 1.0 mM or 2.0 mM glyphosate in medium; about 40 days culture
Protocol: as §3

[9] = test system: non-glyphosate resistant ryegrass; assay: Control of ryegrass by glyphosate, metsulfuron-methyl and two additives; format: in vivo; details: 0.5 L ha-1 glyphosate (SCAT) alone
Protocol: The example was conducted on non-glyphosate resistant ryegrass. As provided in Table 23, all treatments that included glyphosate [180 g a.i. L ha^−1 (0.5 L glyphosate (SCAT®))] plus metsulfuron-methyl (BRUSH-OFFS®) (5 and 10 g ha^−1) gave 100% control of the ryegrass.

lead GAT7 soybean events = assay: Field efficacy experiment JHM5G030, visual rating 7 and 14 days after treatment; format: in vivo; details: 7 DAS and 14 DAS; rimsulfuron 8.75 and 35.0 g/ha ai; Synchrony 35.03 and 140.11 g/ha ai; tribenuron 8.75 and 35.0 g/ha ai
Protocol: GAT round 7 (GAT7) transgenic events from construct PHP20163A were evaluated in 2004 for herbicide efficacy (JHM464TGATEFF) and yield potential (JHD4_GAT7 tests). […] 92M90 was selected as a STS variety to compare directly with the SAMS:ALS construct in the GAT7 events. Variety Jack was utilized as an untransformed negative control.
Selected lines were grown in experiment JHM5G030 in two replications of paired twelve foot rows, with eleven different treatments applied. Lines were blocked by event and treatment to provide side-by-side comparison of the eleven different spray treatments, with a 2 row border between each treatment to catch any spray drift. […] Lines were given a 100 (complete susceptibility, 100% damage) to 0 (complete tolerance, 0% damage) visual rating at 7 days after treatment and again at 14 days after treatment. Visual ratings were based upon overall degree of chlorosis, necrosis, and plant stunting (if evident) in the treated rows compared to the respective unsprayed control rows. Rating data at 7 and 14 days after spraying were subject to ANOVA and mean separation using SAS.

[10] = test system: Soybeans comprising the lead GAT7 event and also having HRA; assay: Greenhouse test confirming the field trial (Example 6B); format: in vivo, soybean; details: GAT/HRA Soybeans
Source text: Example 6B provides greenhouse data that confirms the field trial data provided above in Example 6A. Soybeans comprising the lead GAT7 event and also having HRA were used in the studies.

[11] = test system: Wild Type soybeans (Jack); assay: Postemergence herbicide test on soybeans, % visual injury; format: in vivo, soybean; details: non-transgenic control soybeans; 35 g/ha
Protocol: (§4) Four replications were performed for each treatment.
(§5) When possible, containers were thinned to two uniform plants.

GAT-HRA soybeans = assay: as above; format: in vivo, soybean; details: 35 g/ha
Protocol: as §4, §5

O=C(O)CNCP(=O)(O)O [Glyphosate, N-phosphonomethylglycine]
transgenic plants with no deleterious symptoms [1]: approximately 50% | state of plants after application ([2]; 1.5 lb acid equivalent per acre, 4-6 leaf stage, 2 weeks after application): dead | callus initiation ([3]; 0.5 mM glyphosate in medium): about half of the embryos | callus growth ([3]; 1.0 and 2.0 mM glyphosate in medium): very little callus growth | plants killed [4]: 1 out of 16 plants (12%) | Fresh Weight ([5]; weighed 2 weeks after treatment, untreated 98.8 g): 97.4 g | Visual crop injury (%) at 3472 g/ha ([5]; Zea mays, post-emergence): 10% | control [6]: 34% | Fresh Weight ([7]; weighed 2 weeks after treatment, untreated 76.4 g): 1.0 g | % visual injury to corn at 3472 g/ha ([7]; Zea mays, post-emergence): 100% | resistant callus initiation [8]: some embryos initiated resistant callus | plants that eventually died [9]: 15 of the 16 plants (12%)

CCS(=O)(=O)c1cccnc1S(=O)(=O)NC(=O)Nc1nc(OC)cc(OC)n1 [Rimsulfuron, N-[[(4,6-dimethoxy-2-pyrimidinyl)amino]carbonyl]-3-(ethylsulfonyl)-2-pyridinesulfonamide]
damage from the application ([2]; 16 g active ingredient/hectare, in the absence of glyphosate): severe damage | spray damage of the 4 GAT events compared to Jack and STS (lead GAT7 soybean events): significantly less spray damage compared to Jack and STS | % Growth Reduction ([10]; Rimsulfuron 35 + Imazethapyr 0 g ai/ha, Treatment # 6): 67% | % Growth Reduction ([10]; Rimsulfuron 70 + Imazethapyr 0 g ai/ha, Treatment # 11): 73%

COC(=O)c1ccccc1S(=O)(=O)NC(=O)N(C)c1nc(C)nc(OC)n1 [Tribenuron-methyl, methyl 2-[[[[N-(4-methoxy-6-methyl-1,3,5-triazin-2-yl)-N-methylamino]carbonyl]-amino]sulfonyl]benzoate]
damage [11]: killed | damage (GAT-HRA soybeans): no significant damage | spray damage of the 4 GAT events compared to Jack and STS (lead GAT7 soybean events): significantly less visual damage compared to STS and Jack
